Several values for one entry are separate records, joined by “and”; a condition that tells them apart may be missing. Identical values can stand only once. Entries after “also recorded” stand apart in the source; their conditions may differ. Where no end group is shown, it is not given here.
Tests used:
[1] = test system: human melanoma cell line G-361; assay: Transdifferentiation of G-361 melanoma cells in culture; type: cell-based; design: Phenotypic changes in the cell population: dose or concentration left out as unconfirmed; conditions: 7 days
Protocol: A human melanoma cell line. G-361, was purchased from the American Type Culture Collection (ATCC catalog number CRL-1424, Manassas, Va.) in a cryopreserved state. Upon receipt, the tube containing the frozen cells was rapidly thawed in a 371C water bath by swirling the bottom ⅓ of the tube for less than 2 minutes. All subsequent steps were conducted using standard methods of sterile technique. The cells were transferred to a T-25 flask containing 5 ml of pre-warmed McCoy=s 5A modified medium (Life Technologies, Rockville, Md.) and incubated at 371 C in a humidified CO2 incubator. After approximately 24 hours, the original medium was removed and replaced with fresh medium and the cells allowed to grow until they reached approximately 70-80% confluency with the medium being replaced every 2-3 days as needed. At this point, the cells were subcultured into Leighton tubes at low cell densities using well known typsin-EDTA subculturing techniques. After subculturing, the cells were allowed to re-establish their growth for 48 hours prior to administration of drugs.
Few cells resembled a normal melanocyte phenotype. […] The majority of the cells appeared to be epithelial in morphology. […] The microscopic phenotypic heterogeneity observed was compatible with karyotypic analysis provided by ATCC showing a heterogeneous population with regards to chromosome number.
Later, beta-carotene in tetrahydrofuran was added to McCoy=s 5A modified medium to a final concentration of about 33 mg/ml with a final concentration of 0.5% THF. This supplemented medium was added to the Leighton tubes after removal of un-supplemented medium and was replaced every 2 days during the 7 clay experimental period. At the end of 7 days, the cultures were fixed in methanol and the cover slips were Giemsa stained.
Methods: The melanoma cell line G-361, described in Example 1.4 above was used Guanosine was added to McCoy=s 5A modified medium to a final concentration of 3 mg/ml. This supplemented medium was added to the Leighton tubes after removal of unsupplemented medium and was replaced every 2 days during the 7 day experimental period. At the end of 7 days, the cultures were fixed in methanol and the cover slips were Giemsa stained.
Methods: The melanoma cells line G-361, described in Example 14 above was used Guanosine was added to McCoy=s 5A modified medium to final concentration of 3 mg/ml. This supplemented medium was added to the Leighton tubes after removal of un-supplemented medium and was replaced every 2 days for 7 days. Beta-carotene in THF was added to McCoy=s 5A modified medium at a final concentration of 33 mg/ml with a final concentration of 0.5% THF. […]

[2] = test system: melanophores and xanthophores; conditions: for Cells containing both melanosomes and pterinosomes (melanophore to xanthophore transdifferentiation), light microscopy: Gomori trichrome stained skin, zinc acetate 7 and 12 days; for Cells containing both melanosomes and pterinosomes (melanophore to xanthophore transdifferentiation), light microscopy / Time on feeding at which the animal died: substance sprinkled on food every other day; for Cells containing both melanosomes and pterinosomes (melanophore to xanthophore transdifferentiation), light microscopy / Colour of the animal by inspection: cGMP 22 days, GMP 67 days; for Identification as transdifferentiation agent by the assay: summary statement; for Direction of chromatophore transdifferentiation from macro observations and photographs of whole animals: fed as in Examples A-C
Excerpt: Larval Axolotls have an epidermis on a thin basement membrane, under which is a thick collagen layer (green when stained with Gomori trichrome for light microscopy.) Only 3 types of cells are present immediately below and slightly embedded in the collagen layer-(a) fibroblasts, which are generally fusiform and have a characteristic light and ultrastructural appearance, (b) melanophores, which contain numerous round or oval black melanosomes, as well as some premelanosomes, and (c) xanthophores, which, contain organelles known as pterinosomes. These appear as vacuoles in light microscopy and vacuoles with wispy or concentric layered material in electron microscopy. In general, melanosomes are normally found only in melanophores and pterinosomes in xanthophores.
All Axolotls were 3-5 cm in length at the beginning of the experiment and were obtained from the Indiana University Axolotl Colony, Bloomington, Ind.).
Temperature was 22 °C with a 12 hour light/12 hour dark
photoperiod. Water was changed daily before feeding, and when the animals were removed from feeding an hour later. They were fed about every day. Every other day, the experimental substance was sprinkled on the beef or fish pellets. All experimental reagents were obtained from Sigma (St. Louis Mo.). […] For feeding, beef liver was placed on the raised bottom partially in and partially out of the water. This permitted the animal to sense the food in the water but prevented the cGMP sprinkled on the beef from washing away. […] For feeding the animals were transferred to smaller plastic containers (weighing canoes) which have one side sloped. The pellets were placed on the slope, partially in and partially out of the water. This permitted the animal to sense the food in the water but prevented the cGMP sprinkled on the pellet from washing away. Deer Park Spring Water (Breingsville, Pa.) was used exclusively.
The animals were observed about weekly under an Olympus SZ stereomicroscope and most were photographed prior to sacrifice or shortly (hours) after death. Animals were fixed in 10% Formalin and 4 mm punch biopsies of skin were processed routinely for histology (Gomori Trichrome) by Charles River Laboratories (Wilmington, Mass.). Slides were examined in an Olympus (Woodbury, N.Y.) BX40 microscope.
Three animals (a control and two GMP fed animals) were biopsied with a 2 mm punch and fixed in Trump=s fixative for 24 hours, and processed routinely for electron microscopy. They were postfixed in 2% osmium tetroxide, dehydrated in a serials of alcohols and embedded in Epon-Araldite (1:1). Processing and photography were performed at the Electron Imaging Facility, Rutger=s University, Piscataway, N.J.

chromatophores = conditions: literature reports (Frost; Thibaudeau and Holder; Bagnara); cited from earlier work
melanocytes = conditions: Dupin et al. 2000; cited from earlier work

| Compound | Cells containing both melanosomes and pterinosomes (melanophore to xanthophore transdifferentiation), light microscopy [2] | Identification as transdifferentiation agent by the assay [2] | Direction of chromatophore transdifferentiation from macro observations and photographs of whole animals [2] | other results |
| --- | --- | --- | --- | --- |
| CC1=C(/C=C/C(C)=C/C=C/C(C)=C/C=C/C=C(C)/C=C/C=C(C)/C=C/C2=C(C)CCCC2(C)C)C(C)(C)CCC1 [Beta-carotene, beta-carotene] |  |  |  | Cell death compared with control cultures ([1]; about 33 mg/ml in 0.5% THF): a large segment of the starting population died; Mitotic figures in remaining cell population ([1]; about 33 mg/ml in 0.5% THF): no mitotic figures observed; Morphology of remaining cells ([1]; about 33 mg/ml in 0.5% THF, Giemsa stain): most had triangular morphology and a large nucleus, consistent with neural cells, or were fusiform in shape, consistent with neuroglial or neurilemmal (Schwann) cells |
| Nc1nc2c(ncn2[C@@H]2O[C@H](COP(=O)(O)O)[C@@H](O)[C@H]2O)c(=O)[nH]1 [GMP, guanosine 5′-monophosphate] | clear evidence of transdifferentiation by the presence of cells containing both pterinosomes and melanosomes; also recorded: transdifferentiating from a melanocyte into a xanthophore | transdifferentiation agents |  | Colour of the animal by inspection [2]: markedly lighter by inspection and had a yellow hue; Cells and organelles in skin, electron microscopy ([2]; fed 67 days): many cells in which both melanosomes and pterinosomes were, present; also recorded: organelles which appeared to be hybrids of melanosomes and pterinosomes |
| CC(=O)[O-].CC(=O)[O-].[Zn+2] [Zinc Acetate, reference compound] | cells with both melanosomes and pterinosomes | transdifferentiation agents |  | Time on feeding at which the animal died [2]: 7 days and 12 days |
| Nc1nc2c(ncn2[C@@H]2O[C@@H]3COP(=O)(O)O[C@H]3[C@H]2O)c(=O)[nH]1 [cGMP, guanosine 3′,5′-cyclic monophosphate] | presence of melanosomes and pterinosomes in several cells | transdifferentiation agents |  | Colour of the animal by inspection [2]: lighter by inspection; Time on feeding at which the animal died [2]: 22 days |
| Nc1cc[nH]c(=O)n1 [cytosine] |  |  | transdifferentiates xanthophores to melanophores |  |
| Nc1nc2c(ncn2[C@@H]2O[C@H](CO)[C@@H](O)[C@H]2O)c(=O)[nH]1 [guanosine] |  |  | transdifferentiate melanophores to xanthophores | Transdifferentiation of Axolotl chromatophores (chromatophores): acted as a transdifferentiation agent; also recorded: transdifferentiate from one pigmented cell type to another; Phenotypic changes in the cell population ([1]; Giemsa stain): many cells with an increased nuclear to cytoplasmic ratio; also recorded: increased number of triangular cells consistent with neural phenotypes |
| O[C@H]1[C@H](O)[C@@H](O)[C@H](O)[C@@H](O)[C@H]1O [myo-inositol] |  | transdifferentiation agents | transdifferentiate melanophores to xanthophores |  |
| Cl.Cl.Cl.Cl.NCCNCCNCCN [trien, triethylenetetramine tetrahydrochloride] |  |  | transdifferentiate melanophores to xanthophores |  |
| Endothelian 3: Factor reported by Dupin et al. to induce conversion of melanocytes into glial cells (CTCFTYKDKECVYYCHLDIIW; ends and bridges not checked; cysteine pairing not given here; UniProt P14138 97-117, looked up) |  |  |  | Conversion of melanocytes into glial cells (melanocytes): induce the conversion of melanocytes into glial cells |
